EP1143251B9, “METHOD AND BIOSENSOR FOR DETECTING ANTIGEN” (priority 1999, dated 2000)

Assays:
[1] = titer based on the toxicity of 2,3,7,8-TCDD (receptor binding, allylhydrocarbon hydroxylase inducing ability, toxic effect); cited from earlier work
[2] = system: anti-dioxin monoclonal antibody; conditions: Catalog No. PDI-Dioxin-30, IgG1, host mouse; cited from earlier work
[3] = system: anti-dioxin monoclonal antibody; test: surface plasmon resonance (BIAcore 2000) competitive method with HRP-2,3,7,8-TCDD on an antibody-fixed CM5 sensor chip; format: binding, mouse; conditions: average of the four cells
From the text: An anti-dioxin monoclonal antibody was fixed to a sensor chip by the aminocoupling method using BIAcore (registered trademark) 2000.
As a sensor chip to which the antibody was not fixed, a sensor chip (commercial name CM5) available from BIAcore company was used. The metallic thin film 14 is composed of gold, and its thickness is 50 nm. The fixing body 18 is carboxymethyldextran having no crosslinked structure, and its thickness is 100 nm.
As the anti-dioxin monoclonal antibody, Catalog No. PDI-Dioxin-30 (Research Diagnostics, Inc., Pleasant Hill Road, Flanders, New Jersey, USA) was used. As the host, mouse was used. This anti-dioxin monoclonal antibody contains 10 mg IgG1 in 3.125 ml (3.2 mg/ml), 0.2M PBS, pH 7.2, and 0.05% sodium azide.
First, BIAcore's sensor chip CM5 was set in BIAcore (registered trademark) 2000. Then, a mixed solution of N-ethyl-N'-(3-dimethylaminopropyl)carbodiimide hydrochloride (EDC) and N-hydroxysuccinimide (NHS) was injected into BIAcore (registered trademark) 2000 to activate the sensor chip CM5.
The anti-dioxin monoclonal antibody (1,000 ppm) was centrifuged to replace the solvent. Finally, the antibody was dissolved in 100 µl of 10 mM acetic acid environment solution. The resulting solution in an amount of 50 µl was injected into BIAcore (registered trademark) 2000 at a rate of 5 µl/min to fix the anti-dioxin monoclonal antibody onto the surface of the sensor chip. […]
Using the sensor chip obtained in Example 1, dioxins were detected by the competitive method. […]
The diluted 2,3,7,8-TCDD solution of each concentration was mixed with 10 ppm HRP-2,3,7,8-TCDD in BIAcore. […] A change in the disappearance angle due to the binding of 2,3,7,8-TCDD itself to the antibody is too small to be measured by SPR. […]
Then, the mixture was injected (3 µl/min) into BIAcore 2000, and an SPR signal was measured to determined the disappearance angle. That is, polarized light with a wavelength of 760 nm was projected, and the intensity of reflected light was measured, with the angle of incidence of incident light being varied. […]

For `Clc1cc2oc3cc(Cl)c(Cl)c(Cl)c3c2cc1Cl` [1,2,3,7,8-Penta CDF], the TEF [1] is listed as 0.05.

In the case of `Clc1cc2c(oc3c(Cl)c(Cl)c(Cl)cc32)c(Cl)c1Cl` [2,3,4,6,7,8-Hexa CDF], the TEF [1] is listed as 0.1.

For `Clc1cc2c(cc1Cl)Oc1c(Cl)c(Cl)c(Cl)c(Cl)c1O2` [1,2,3,4,7,8-Hexa CDD], the TEF [1] is given as 0.1.

In the case of `Clc1ccc2c(c1)Oc1cc(Cl)c(Cl)cc1O2` [2,3,7-TriCDD], the “reactivity of the anti-dioxin monoclonal antibody” value (shortened to “reactivity”) [2] is given as under 20%.

In the case of `Clc1cc(Cl)c2c(c1)oc1c(Cl)cc(Cl)cc12` [1,3,6,8-Tetra CDF], the TEF [1] is given as 0.

For `Clc1cc2c(c(Cl)c1Cl)Oc1cc(Cl)c(Cl)c(Cl)c1O2` [1,2,3,6,7,8-Hexa CDD], the TEF [1] is listed as 0.1.

For `Clc1cc2c(cc1Cl)Oc1ccccc1O2` [2,3-DCDD], the “reactivity” value [2] is listed as 2.2%.

In the case of `Clc1cc2c(oc3cc(Cl)c(Cl)c(Cl)c32)c(Cl)c1Cl` [1,2,3,6,7,8-Hexa CDF], the TEF [1] is listed as 0.1.

For `Clc1c(Cl)c(Cl)c2c(c1Cl)Oc1c(Cl)c(Cl)c(Cl)c(Cl)c1O2` [Octa CDD], the TEF [1] is given as 0.001.

In the case of `Clc1cc(Cl)c2c(c1)Oc1cc(Cl)cc(Cl)c1O2` [1,3,7,9-Tetra CDD], the TEF [1] is listed as 0.

For `Clc1cc2c(c(Cl)c1Cl)Oc1c(cc(Cl)c(Cl)c1Cl)O2` [1,2,3,7,8,9-Hexa CDD], the TEF [1] is given as 0.1.

For `Clc1cc2c(cc1Cl)Oc1c(cc(Cl)c(Cl)c1Cl)O2` [1,2,3,7,8-Penta CDD], the TEF [1] is given as 0.5.

In the case of `Clc1cc2oc3c(Cl)c(Cl)c(Cl)c(Cl)c3c2c(Cl)c1Cl` [1,2,3,4,7,8,9-Hepta CDF], the TEF [1] is given as 0.1.

For `Clc1ccc2c(c1)Oc1ccccc1O2` [2-CDD], the “reactivity” value [2] is given as 0.3%.

In the case of `Clc1cc2c(cc1Cl)Oc1cc(Cl)c(Cl)cc1O2` [2,3,7,8-TCDD], the TEF [1] is listed as 1, the “ΔRU Average” value ([3]; Dioxin concentration 3.8 ppb) is listed as 234.75 RU and the “ΔRU Average” value ([3]; Dioxin concentration 7.6ppb) is listed as 197.9 RU. The “ΔRU Average” value ([3]; Dioxin concentration 76 ppb) was 135.9 RU and the “reactivity” value [2] was 100%.

For `Clc1cc2oc3c(Cl)c(Cl)c(Cl)c(Cl)c3c2cc1Cl` [1,2,3,4,7,8-Hexa CDF], the TEF [1] is given as 0.1.

In the case of `Clc1cc(Cl)c2c(c1Cl)Oc1ccccc1O2` [1,2,4-TriCDD], the “reactivity” value [2] is listed as under 1.0%.

In the case of `Clc1cc2c(c(Cl)c1Cl)Oc1c(Cl)c(Cl)c(Cl)c(Cl)c1O2` [1,2,3,4,6,7,8-Hepta CDD], the TEF [1] is given as 0.01.

For `Clc1c(Cl)c(Cl)c2c(oc3c(Cl)c(Cl)c(Cl)c(Cl)c32)c1Cl` [Octa CDF], the TEF [1] is given as 0.001.

For `Clc1cc2oc3cc(Cl)c(Cl)cc3c2cc1Cl` [2,3,7,8-TCDF], the TEF [1] is listed as 0.1 and the “reactivity” value [2] is listed as 4.6%.

In the case of `Clc1cc2oc3cc(Cl)c(Cl)c(Cl)c3c2c(Cl)c1Cl` [1,2,3,7,8,9-Hexa CDF], the TEF [1] is listed as 0.1.

For `Clc1cc(Cl)c2c(c1)Oc1c(Cl)cc(Cl)cc1O2` [1,3,6,8-Tetra CDD], the TEF [1] is listed as 0.

For `Clc1cc2c(oc3c(Cl)c(Cl)c(Cl)c(Cl)c32)c(Cl)c1Cl` [1,2,3,4,6,7,8-Hepta CDF], the TEF [1] is given as 0.1.
